# Test results from ChEMBL document CHEMBL4342404, “Anti-cholinesterase hybrids as multi-target-directed ligands against Alzheimer's disease (1998-2018)” (Bioorg Med Chem, 2019).
# Tests used:
# [1] = target: Acetylcholinesterase (Rattus norvegicus) (UniProt P37136); assay: Inhibition of acetylcholinesterase in Wistar rat primary cortical neuron cells assessed as reduction in amyloidbeta40 level at […] incubated for 24 hrs by ELISA relative to control
# Acetylcholinesterase [2] = target: T1, Acetylcholinesterase (Homo sapiens, UniProt P22303); assay: biochemical
# Description: Inhibition of human acetylcholinesterase expressed in HEK 293 cells using acetylthiocholine iodide as substrate by Ellman's method
# Histamine H3 receptor = Histamine H3 receptor (Homo sapiens, UniProt Q9Y5N1); assay: biochemical
# Description: Displacement of [3H]-N-alpha-methylhistamine from human H3R expressed in HEK293 cell membranes incubated for 90 mins by liquid scintillation counting method
# [3] = target: Amine oxidase [flavin-containing] A (Homo sapiens, UniProt P21397)
# Description: Inhibition of recombinant human MAOA expressed in baculovirus infected BTI insect cells using p-tyramine as substrate preincubated for 30 mins followed by substrate addition by Amplex red reagent/horseradish peroxidase coupled fluorescence assay
# Cholinesterase [4] = target: T2, Cholinesterase (Homo sapiens, UniProt P06276); assay: Inhibition of human plasma butyrylcholinesterase by Ellman's method
# Rattus norvegicus [5] = assay: In vivo inhibition of MAO-B in Sprague-Dawley rat at 26 mg/kg, po administered for 2 weeks by radioassay method relative to control; type: functional; details: 336 h
# Rattus norvegicus [6] = assay: In vivo inhibition of MAO-A in Sprague-Dawley rat at 26 mg/kg, po administered for 2 weeks by radioassay method relative to control; type: functional; details: 336 h
# Acetylcholinesterase [7] = target: T1, Acetylcholinesterase
# Cholinesterase [8] = target: T2, Cholinesterase; assay: Inhibition of human butyrylcholinesterase
# [9] = target: Butyrylcholinesterase (Rattus norvegicus) (UniProt Q9JKC1); assay: Inhibition of rat serum butyrylcholinesterase using butyrylthiocholine iodide as substrate at 50 uM incubated for 15 mins by Ellman's method relative to control
# Acetylcholinesterase [10] = target: T3, Acetylcholinesterase (Electrophorus electricus, UniProt O42275); assay: Inhibition of electric eel AChE using acetylthiocholine iodide as substrate incubated for 15 mins by Ellman's method
# Acetylcholinesterase [11] = target: T1, Acetylcholinesterase; assay: Inhibition of human acetylcholinesterase using acetylthiocholine as substrate pretreated followed by substrate addition and measured after 15 mins by Ellman's method
# Acetylcholinesterase [12] = target: T3, Acetylcholinesterase; assay: Inhibition of electric eel AChE using acetylthiocholine iodide as substrate pretreated followed by substrate addition and measured after 2 mins by Ellman's method
# Cholinesterase [13] = target: T2, Cholinesterase; assay: Inhibition of human butyrylcholinesterase using butyrylthiocholine iodide as substrate pretreated followed by substrate addition and measured after 15 mins by Ellman's method
# Homo sapiens = organism: Homo sapiens; assay: Selectivity index, ratio of IC50 for human AChE to IC50 for human BuChE
# Cholinesterase [14] = target: Cholinesterase (Equus caballus, UniProt P81908); assay: Inhibition of equine serum BuChE using butyrylthiocholine iodide as substrate pretreated followed by substrate addition and measured after 2 mins by Ellman's method
# Cholinesterase [15] = target: T2, Cholinesterase; assay: Inhibition of human butyrylcholinesterase by Ellman's method
# [16] = Antioxidant activity assessed as AAPH radical scavenging activity measured every min for 60 mins by ORAC-FL assay relative to trolox; type: functional
# Cholinesterase [17] = target: T2, Cholinesterase; assay: Inhibition of human serum butyrylcholinesterase using butyrylthiocholine iodide as substrate preincubated for 20 mins followed by substrate addition preincubated for 20 mins followed by substrate addition by Ellman's method
# [18] = Cytotoxicity against human HepG2 cells assessed as cell viability at 1000 uM by MTT assay relative to control; type: cell-based; details: read-out: Activity
# Acetylcholinesterase [19] = target: T1, Acetylcholinesterase; assay: Inhibition of human acetylcholinesterase by Ellman's method
# [20] = target: Amine oxidase [flavin-containing] B (Homo sapiens, UniProt P27338); assay: Inhibition of recombinant human MAO-B using p-tyramine as substrate preincubated for 15 mins followed by substrate addition and measured over 15 mins by Amplex red reagent/horseradish peroxidase coupled fluorescence assay
# Acetylcholinesterase [21] = target: T1, Acetylcholinesterase; assay: Inhibition of human erythrocyte acetylcholinesterase using acetylthiocholine as substrate preincubated for 60 mins followed by substrate addition by Ellman's method
# Acetylcholinesterase [22] = target: T4, Acetylcholinesterase (Bos taurus, UniProt P23795)
# T4 sequence (P23795 whole entry): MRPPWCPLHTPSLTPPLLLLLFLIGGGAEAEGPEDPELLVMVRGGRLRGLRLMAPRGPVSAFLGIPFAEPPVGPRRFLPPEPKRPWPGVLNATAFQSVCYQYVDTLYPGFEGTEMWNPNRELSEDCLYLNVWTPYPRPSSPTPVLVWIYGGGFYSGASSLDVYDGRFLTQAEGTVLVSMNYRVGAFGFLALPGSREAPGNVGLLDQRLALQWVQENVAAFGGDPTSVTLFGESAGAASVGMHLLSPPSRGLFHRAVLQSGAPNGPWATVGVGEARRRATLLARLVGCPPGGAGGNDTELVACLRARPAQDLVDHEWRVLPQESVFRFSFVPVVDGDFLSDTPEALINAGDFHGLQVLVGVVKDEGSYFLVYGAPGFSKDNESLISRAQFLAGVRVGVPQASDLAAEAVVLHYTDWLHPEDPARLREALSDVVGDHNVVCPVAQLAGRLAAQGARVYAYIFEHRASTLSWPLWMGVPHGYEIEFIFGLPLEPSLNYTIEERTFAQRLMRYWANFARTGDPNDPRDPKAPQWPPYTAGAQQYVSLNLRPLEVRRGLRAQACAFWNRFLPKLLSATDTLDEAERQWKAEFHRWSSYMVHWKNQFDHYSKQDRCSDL
# Description: Inhibition of bovine erythrocyte acetylcholinesterase using acetylthiocholine as substrate incubated for 15 mins by Ellman's method
# T2 sequence (P06276 whole entry): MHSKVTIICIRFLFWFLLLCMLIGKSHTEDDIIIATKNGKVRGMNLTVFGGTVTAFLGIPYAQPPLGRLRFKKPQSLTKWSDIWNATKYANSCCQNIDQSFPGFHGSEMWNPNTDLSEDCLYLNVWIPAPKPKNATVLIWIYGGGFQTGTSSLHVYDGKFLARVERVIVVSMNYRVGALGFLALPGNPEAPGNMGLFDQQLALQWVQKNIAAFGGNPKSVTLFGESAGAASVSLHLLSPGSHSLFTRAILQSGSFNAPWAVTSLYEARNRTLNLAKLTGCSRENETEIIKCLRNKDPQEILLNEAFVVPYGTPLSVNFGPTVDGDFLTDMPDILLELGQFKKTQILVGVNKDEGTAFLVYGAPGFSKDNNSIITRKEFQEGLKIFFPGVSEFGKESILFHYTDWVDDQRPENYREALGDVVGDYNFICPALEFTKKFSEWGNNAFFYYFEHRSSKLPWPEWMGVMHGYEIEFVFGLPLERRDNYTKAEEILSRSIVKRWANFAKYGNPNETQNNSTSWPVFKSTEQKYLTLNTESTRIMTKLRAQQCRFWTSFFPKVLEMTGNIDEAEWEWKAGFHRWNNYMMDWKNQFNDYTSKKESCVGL
# T1 sequence (P22303 whole entry): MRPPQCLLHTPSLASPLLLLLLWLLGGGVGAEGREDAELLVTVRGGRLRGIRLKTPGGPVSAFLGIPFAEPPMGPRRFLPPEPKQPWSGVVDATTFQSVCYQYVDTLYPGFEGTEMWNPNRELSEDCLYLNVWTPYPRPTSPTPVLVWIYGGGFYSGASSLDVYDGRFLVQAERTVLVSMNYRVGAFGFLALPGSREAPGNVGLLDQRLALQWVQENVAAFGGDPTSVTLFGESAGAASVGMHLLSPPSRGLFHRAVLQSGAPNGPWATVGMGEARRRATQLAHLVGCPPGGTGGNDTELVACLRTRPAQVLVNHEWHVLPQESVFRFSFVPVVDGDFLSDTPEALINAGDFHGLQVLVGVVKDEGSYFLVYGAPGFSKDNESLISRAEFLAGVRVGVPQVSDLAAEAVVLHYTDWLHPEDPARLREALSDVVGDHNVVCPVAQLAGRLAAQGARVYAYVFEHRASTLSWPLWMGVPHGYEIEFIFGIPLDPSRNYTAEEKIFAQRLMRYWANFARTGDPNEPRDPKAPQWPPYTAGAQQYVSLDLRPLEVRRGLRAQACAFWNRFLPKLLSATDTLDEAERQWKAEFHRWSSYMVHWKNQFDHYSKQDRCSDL
# T3 sequence (O42275 whole entry): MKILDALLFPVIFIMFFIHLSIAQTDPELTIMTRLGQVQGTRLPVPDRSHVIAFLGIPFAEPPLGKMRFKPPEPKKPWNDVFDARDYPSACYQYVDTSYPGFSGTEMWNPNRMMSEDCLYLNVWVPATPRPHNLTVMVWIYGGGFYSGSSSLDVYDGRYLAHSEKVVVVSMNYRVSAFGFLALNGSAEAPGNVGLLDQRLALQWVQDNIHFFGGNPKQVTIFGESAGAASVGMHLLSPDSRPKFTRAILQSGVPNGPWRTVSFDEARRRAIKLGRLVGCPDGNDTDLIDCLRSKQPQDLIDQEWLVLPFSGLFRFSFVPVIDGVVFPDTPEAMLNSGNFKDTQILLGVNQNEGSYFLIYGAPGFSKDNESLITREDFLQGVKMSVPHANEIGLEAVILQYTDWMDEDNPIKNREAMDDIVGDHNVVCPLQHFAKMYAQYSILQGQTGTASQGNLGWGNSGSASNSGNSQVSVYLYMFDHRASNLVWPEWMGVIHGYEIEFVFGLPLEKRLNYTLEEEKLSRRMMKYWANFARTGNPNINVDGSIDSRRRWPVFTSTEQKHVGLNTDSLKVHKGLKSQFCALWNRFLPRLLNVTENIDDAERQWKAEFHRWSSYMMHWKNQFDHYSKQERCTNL
# Chain of Amine oxidase [flavin-containing] B (P27338 whole entry): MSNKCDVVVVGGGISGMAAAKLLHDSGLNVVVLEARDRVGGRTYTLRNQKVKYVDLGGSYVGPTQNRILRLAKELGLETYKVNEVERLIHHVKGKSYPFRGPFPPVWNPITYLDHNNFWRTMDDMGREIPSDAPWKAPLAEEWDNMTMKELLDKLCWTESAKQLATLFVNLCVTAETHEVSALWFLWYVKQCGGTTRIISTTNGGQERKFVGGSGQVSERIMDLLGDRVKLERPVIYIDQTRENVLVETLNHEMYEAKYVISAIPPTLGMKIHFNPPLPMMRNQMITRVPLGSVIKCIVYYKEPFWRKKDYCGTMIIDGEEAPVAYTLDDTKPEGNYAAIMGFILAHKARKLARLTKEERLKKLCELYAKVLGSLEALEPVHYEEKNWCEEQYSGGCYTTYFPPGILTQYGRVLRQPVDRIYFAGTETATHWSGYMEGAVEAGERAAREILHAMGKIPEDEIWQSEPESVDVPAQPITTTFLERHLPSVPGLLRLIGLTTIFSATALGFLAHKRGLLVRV
# Chain of Butyrylcholinesterase (Rattus norvegicus) (Q9JKC1 as listed by the source): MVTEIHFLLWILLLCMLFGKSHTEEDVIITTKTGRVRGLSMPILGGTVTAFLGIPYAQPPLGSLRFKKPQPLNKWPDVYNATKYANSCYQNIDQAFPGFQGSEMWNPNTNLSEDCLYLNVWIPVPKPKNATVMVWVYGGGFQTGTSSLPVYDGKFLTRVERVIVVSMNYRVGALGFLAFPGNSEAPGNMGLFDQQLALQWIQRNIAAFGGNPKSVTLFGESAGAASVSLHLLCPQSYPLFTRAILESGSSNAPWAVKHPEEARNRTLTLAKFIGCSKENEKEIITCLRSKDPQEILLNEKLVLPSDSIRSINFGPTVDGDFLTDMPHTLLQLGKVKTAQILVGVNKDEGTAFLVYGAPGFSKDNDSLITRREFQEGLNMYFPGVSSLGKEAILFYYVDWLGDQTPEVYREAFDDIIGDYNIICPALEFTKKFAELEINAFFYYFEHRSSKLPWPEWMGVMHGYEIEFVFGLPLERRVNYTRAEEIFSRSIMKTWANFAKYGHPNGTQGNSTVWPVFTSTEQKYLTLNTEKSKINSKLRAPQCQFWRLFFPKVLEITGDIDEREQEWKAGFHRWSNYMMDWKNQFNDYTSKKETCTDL
# Chain of Cholinesterase (Equus caballus, UniProt P81908) (P81908 whole entry): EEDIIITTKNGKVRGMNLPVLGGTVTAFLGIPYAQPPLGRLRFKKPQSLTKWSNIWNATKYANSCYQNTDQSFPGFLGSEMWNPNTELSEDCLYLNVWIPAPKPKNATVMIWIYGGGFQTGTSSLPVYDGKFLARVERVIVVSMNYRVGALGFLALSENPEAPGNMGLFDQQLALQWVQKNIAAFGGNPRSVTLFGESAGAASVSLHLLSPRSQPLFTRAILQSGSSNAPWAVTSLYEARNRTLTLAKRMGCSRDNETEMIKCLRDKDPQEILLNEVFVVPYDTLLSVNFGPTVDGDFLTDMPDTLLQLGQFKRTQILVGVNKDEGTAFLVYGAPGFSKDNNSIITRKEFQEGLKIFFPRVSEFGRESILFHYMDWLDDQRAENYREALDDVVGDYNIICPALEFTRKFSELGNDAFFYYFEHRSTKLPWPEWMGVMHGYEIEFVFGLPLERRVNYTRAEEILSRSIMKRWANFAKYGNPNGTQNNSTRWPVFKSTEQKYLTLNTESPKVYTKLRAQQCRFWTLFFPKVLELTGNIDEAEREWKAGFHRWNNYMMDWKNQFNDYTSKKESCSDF
# Chain of Acetylcholinesterase (Rattus norvegicus) (P37136 whole entry): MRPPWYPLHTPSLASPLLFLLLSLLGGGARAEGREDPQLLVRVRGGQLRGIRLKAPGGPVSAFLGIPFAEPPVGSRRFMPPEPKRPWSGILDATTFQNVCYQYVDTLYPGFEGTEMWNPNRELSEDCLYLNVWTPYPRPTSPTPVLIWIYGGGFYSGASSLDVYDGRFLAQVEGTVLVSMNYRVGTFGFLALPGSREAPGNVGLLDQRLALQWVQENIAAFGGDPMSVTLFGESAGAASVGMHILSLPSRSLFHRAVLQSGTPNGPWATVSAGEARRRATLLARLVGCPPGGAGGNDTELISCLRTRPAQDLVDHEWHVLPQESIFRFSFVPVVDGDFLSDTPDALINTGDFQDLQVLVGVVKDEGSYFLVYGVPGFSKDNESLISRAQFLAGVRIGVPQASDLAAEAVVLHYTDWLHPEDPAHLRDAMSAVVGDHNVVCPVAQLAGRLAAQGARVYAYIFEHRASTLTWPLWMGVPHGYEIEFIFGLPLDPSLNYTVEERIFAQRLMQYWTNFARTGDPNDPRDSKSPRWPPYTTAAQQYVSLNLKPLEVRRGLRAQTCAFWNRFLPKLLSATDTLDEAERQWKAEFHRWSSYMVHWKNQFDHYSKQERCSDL
# Chain of Amine oxidase [flavin-containing] A (P21397 whole entry): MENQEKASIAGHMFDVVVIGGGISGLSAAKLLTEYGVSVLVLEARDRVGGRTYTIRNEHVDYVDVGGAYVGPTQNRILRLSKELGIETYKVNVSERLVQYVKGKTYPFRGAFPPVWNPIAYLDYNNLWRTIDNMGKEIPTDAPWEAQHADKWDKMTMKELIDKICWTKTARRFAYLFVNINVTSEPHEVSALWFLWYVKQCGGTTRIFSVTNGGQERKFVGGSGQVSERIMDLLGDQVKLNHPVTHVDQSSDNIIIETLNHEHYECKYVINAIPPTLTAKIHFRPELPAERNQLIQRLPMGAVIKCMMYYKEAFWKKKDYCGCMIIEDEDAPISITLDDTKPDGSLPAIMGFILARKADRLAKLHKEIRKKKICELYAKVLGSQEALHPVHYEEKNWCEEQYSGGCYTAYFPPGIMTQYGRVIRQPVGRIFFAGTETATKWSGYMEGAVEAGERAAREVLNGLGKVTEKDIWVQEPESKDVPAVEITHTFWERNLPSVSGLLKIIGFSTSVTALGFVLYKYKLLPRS
compound,measurement,setting,value
CC(C(=O)NCCCCCCNc1c2c(nc3ccccc13)CCCC2)c1ccc(-c2ccccc2)c(F)c1 (stereo unspecified),inhibition,[1],31%
C#CCN(C)Cc1cc2cc(OCCCC3CCN(Cc4ccccc4)CC3)ccc2n1C,IC50,Acetylcholinesterase [2],0.81 µM
same,Ki,Histamine H3 receptor,0.0842 µM
same,IC50,[3],0.00027 µM
same,IC50,Cholinesterase [4],1.82 µM
C#CCN[C@@H]1CCc2ccc(OC(=O)N(C)CC)cc21 [LADOSTIGIL],inhibition in vivo at 26 mg/kg,Rattus norvegicus [5],71%
same,inhibition in vivo at 26 mg/kg,Rattus norvegicus [6],66%
COc1ccc2[nH]cc(CCNC(=O)CN(CCC3CCN(Cc4ccccc4)CC3)C(=O)/C=C/c3ccc(O)c(OC)c3)c2c1,IC50,Acetylcholinesterase [7],0.0307 µM
same,IC50,Cholinesterase [8],0.0218 µM
CCN(CC)Cc1ccc(/C=C/c2cnc(C)c(O)c2CO)cc1O,inhibition,[9],16.7%
same,IC50,Acetylcholinesterase [10],2.11 µM
COc1ccc2[nH]cc(CCNC(=O)CN(CCCC3CCN(Cc4ccccc4)CC3)C(=O)/C=C/c3ccc(O)c(OC)c3)c2c1,IC50,Acetylcholinesterase [7],0.0262 µM
same,IC50,Cholinesterase [8],0.0175 µM
COc1cc(/C=C/C(=O)NCCNc2c3c(nc4ccccc24)CCCC3)ccc1OCc1ccccc1,IC50,Acetylcholinesterase [11],0.0551 µM
same,IC50,Acetylcholinesterase [12],0.0158 µM
same,IC50,Cholinesterase [13],0.0559 µM
same,Selectivity Index,Homo sapiens,1
same,IC50,Cholinesterase [14],0.0526 µM
Cc1cc(=O)oc2cc(OC/C=C/CCn3cnc4c(N5CCCC5)ncnc43)ccc12,IC50,Cholinesterase [15],4.65 µM
COc1ccc2nc3c(c(NCCCCCCCCN(CC(=O)Nc4ccc5ccccc5c4)C(=O)/C=C/c4ccc(O)c(OC)c4)c2c1)CCCC3,Ratio,[16],4.29
same,IC50,Cholinesterase [17],0.0682 µM
same,viability at 1000 µM,[18],59.4%
Cc1cc(=O)oc2ccc(OC/C=C/CCn3cnc4c(N5CCCCC5)ncnc43)cc12,IC50,Acetylcholinesterase [19],11.9 µM
same,IC50,[20],6.8 µM
"C#CCN(C)C(C)Cc1cccc(OC(=O)N(C)CCCCCC)c1 (single isomer, unassigned; (+))",IC50,Acetylcholinesterase [21],2 µM
"CC1=CC2Cc3nc4cc(Cl)ccc4c(N)c3C(C1)C2 (single isomer, unassigned; (+)) [HUPRINE Y]",IC50,Acetylcholinesterase [22],0.0361 µM
